Measurements published in patent US8203033B2, “Methods and compositions for providing tolerance to multiple herbicides” (Pioneer Hi-Bred International, Inc., priority 2005, dated 2012).

Key:
Format in all cases: in vivo
[1] = system: parent elite stiff stalk inbred corn; assay: Preemergence test of ALS herbicides on corn (fresh weight, visual injury); conditions: 200 g/ha, mean of four replications; for Fresh Weight: fresh shoots weighed 4 weeks after treatment; for % Visual Injury: 0% no injury, 100% plant death
[2] = system: Heterozygous GAT-HRA corn; assay: as above; conditions: 200 g/ha, mean of four replications; for Fresh Weight: fresh shoots weighed 4 weeks after treatment; for % Visual Injury: 0% no injury, 100% plant death
[3] = system: parent elite stiff stalk inbred corn; assay: Postemergence test of herbicides on corn (fresh weight, visual injury)
[4] = system: Heterozygous GAT-HRA corn; assay: as above; conditions: for Fresh Weight: fresh shoots weighed 2 weeks after treatment
GAT-HRA maize = assay: Evaluation of herbicide tolerance, spray at V2 stage; conditions: postemergence; tribenuron, chlorimuron, imazapyr 200 g ai/ha; metsulfuron-methyl 35 g ai/ha
Method: GAT-HRA maize plants were evaluated for tolerance to glyphosate and other herbicides. One protocol used in this evaluation was as follows. At the V2 stage (Ritchie and Hanway (1982), “How a corn plant develops” Spec. Rep. 48. (Coop. Ext. Ser., Iowa State Univ., Ames, Iowa)), plant heights were measured and herbicides were applied by spray application. Ten to fourteen days after the spray application, the transgenic plants were evaluated for injury symptoms and measured for plant height again in order to determine plant growth rates.
Plants were then evaluated at various times after treatment, such as 10 or 14 days after treatment. […] Leaf samples were taken from GAT-HRA plants and used in quantitative PCR analysis and other analyses to determine the number and arrangement of copies of the GAT and HRA polynucleotides that had been integrated into the plant genome.
Other protocols for evaluation included treatment with imidazolinone herbicides, such as the commercial herbicide Lightning® (a combination of imazapyr and imazethapyr), which was applied to GAT-HRA maize at the V2 leaf stage at four times the field label rate (250 g ai/ha). […] Another protocol for evaluation included treatment with imidazolinone herbicides as well as sulfonylurea and glyphosate herbicides. In these tests, GAT-HRA maize was treated with various combinations of Lightning® (imazapyr and imazethapyr), Basis® (rimsulfuron and thifensulfuron-methyl) and WeatherMAX® (glyphosate potassium salt). These herbicides were applied at the V2 stage as follows: Lightning® at twice the field label rate (1.8 oz ai/ac (133 ml ai/ha)), Basis® at twice the field label rate (0.5 oz ai/ac (36.9 ml ai/ha)) and WeatherMax® at four times the field label rate (43 oz ai/ac). Fourteen days after the treatment application, the plants were evaluated. […] “Field label rate” refers to the application rate specified on the product label. Where the application rate for a particular situation is a range of rates, as used herein, the term “field label rate” indicates the upper end of that range. […]

control maize = assay: as above; conditions: postemergence; tribenuron, chlorimuron, imazapyr 200 g ai/ha; metsulfuron-methyl 35 g ai/ha
[5] = system: Hairy Fleabane (Conyza bonariensis); assay: Glyphosate, metsulfuron-methyl and two additives on the control of hairy fleabane
Method: This example included the same treatments as used in Example 11, except the treatments were carried out on a glyphosate sensitive biotype of Kleinskraalhans (Conyza bonariensis).

[6] = system: non-glyphosate resistant ryegrass (70-04); assay: Glyphosate, metsulfuron-methyl and two additives on the control of ryegrass; conditions: 5-6 leaf stage
Method: The example was conducted on non-glyphosate resistant ryegrass. As provided in Table 23, all treatments that included glyphosate [180 g a.i. L ha^−1 (0.5 L glyphosate (SCAT®))] plus metsulfuron-methyl (BRUSH-OFF®) (5 and 10 g ha^−1) gave 100% control of the ryegrass.

[7] = 200 g/ha, 0% no injury, 100% plant death, mean of four replications
[8] = 200 g/ha, fresh shoots weighed 2 weeks after treatment, mean of four replications
[9] = 200 g/ha, mean of four replications

| Molecule | Fresh Weight [1] [g] | Fresh Weight [2] [g] | % Visual Injury [3, 7] [%] | Fresh Weight [3, 8] [g] | % Visual Injury [4, 7] [%] | Fresh Weight [4, 9] [g] | % Visual Injury [1] [%] | % Visual Injury [2] [%] | also measured |
| --- | --- | --- | --- | --- | --- | --- | --- | --- | --- |
| CCOc1nc(F)cc2nc(S(=O)(=O)Nc3c(Cl)cccc3C(=O)OC)nn12 [Chloransulam-methyl, methyl 3-chloro-2-[[(5-ethoxy-7-fluoro-[1,2,4]triazolo[1,5-c]pyrimidin-2-yl)sulfonyl]amino]benzoate] | 5.5 | 44.9 | 96 | 6.8 | 3 | 104.4 |  |  |  |
| CCOc1nc(NC)nc(NC(=O)NS(=O)(=O)c2ccccc2C(=O)OC)n1 [Ethametsulfuron-methyl, methyl 2-[[[[[4-ethoxy-6-(methylamino)-1,3,5-triazin-2-yl]amino]carbonyl]amino]sulfonyl]benzoate] | 1.6 |  | 96 | 5.6 | 6 | 98.0 | 100 | 88 |  |
| COC(=O)c1ccc(C(F)(F)F)nc1S(=O)(=O)NC(=O)Nc1nc(OC)cc(OC)n1 [Flupyrsulfuron-methyl Na^+, methyl 2-[[[[(4,6-dimethoxy-2-pyrimidinyl)amino]carbonyl]amino]sulfonyl]-6-(trifluoromethyl)-3-pyridinecarboxylate] | 23.6 | 45.8 | 95 | 5.2 | 4 | 95.5 | 87 | 90 |  |
| CP(=O)(O)CCC(N)C(=O)O (stereo not shown) [Glufosinate ammonium] |  |  |  |  |  |  |  |  | % Visual Injury ([3]; 1870 g/ha): 99%; Fresh Weight ([3]; 1870 g/ha, 2 weeks after treatment): 2.4 g; % Visual Injury ([4]; 1870 g/ha): 1% |
| CCOC(=O)c1ccccc1S(=O)(=O)NC(=O)Nc1nc(Cl)cc(OC)n1 [Chlorimuron-ethyl, ethyl 2-[[[[(4-chloro-6-methoxy-2-pyrimidinyl)amino]carbonyl]amino]sulfonyl]-benzoate] | 9.3 |  | 93 |  | 15 |  | 100 | 10 | damage from the treatment (GAT-HRA maize): no significant damage; damage from the treatment (control maize): severely damaged or killed |
| COC(=O)c1ccccc1S(=O)(=O)NC(=O)Nc1nc(C)cc(C)n1 [Sulfometuron-methyl, methyl 2-[[[[(4,6-dimethyl-2-pyrimidinyl)amino]carbonyl]amino]sulfonyl]-benzoate] | 0.0 |  | 100 | 2.0 | 2 |  | 100 | 6 |  |
| CC(C)C1(C)N=C(c2ncccc2C(=O)O)NC1=O (stereo not shown) [Imazapyr] |  |  |  |  |  |  |  |  | damage from the treatment (GAT-HRA maize): no significant damage; damage from the treatment (control maize): severely damaged or killed |
| COc1nn(C(=O)NS(=O)(=O)c2ccccc2OC(F)(F)F)c(=O)n1C [Flucarbazone Na^+, 4,5-dihydro-3-methoxy-4-methyl-5-oxo-N-[[2-(trifluoromethoxy)phenyl]sulfonyl]-1H-1,2,4-triazole-1-carboxamide] | 0.0 | 48.8 | 100 | 3.1 | 14 | 86.0 | 100 | 40 |  |
| COC(=O)c1cccc(C)c1S(=O)(=O)NC(=O)Nc1nc(OCC(F)(F)F)nc(N(C)C)n1 [Triflusulfuron-methyl] |  |  |  | 2.1 |  |  |  |  |  |
| O=C(O)CNCP(=O)(O)O [glyphosate (ROUNDUP ®)] |  |  |  |  |  |  |  |  | Control (%) ([5]; Trial 1: glyphosate (ROUNDUP) 0.5 L/ha): 12% |
| COC(=O)c1ccccc1S(=O)(=O)NC(=O)Nc1nc(C)nc(OC)n1 [Metsulfuron-methyl (BRUSH-OFF ®)] |  |  |  |  |  |  |  |  | Control (%) ([5]; Trial 2: metsulfuron-methyl (BRUSH-OFF) 5 g/ha): 100%; Control (%) ([5]; Trial 3: metsulfuron-methyl (BRUSH-OFF) 10 g/ha): 100% |
| Imazamethabenz-methyl |  |  |  |  |  | 95.0 |  |  |  |
| CCCOc1nn(C(=O)NS(=O)(=O)c2ccccc2C(=O)OC)c(=O)n1C [Propoxycarbazone Na^+, methyl 2-[[[(4,5-dihydro-4-methyl-5-oxo-3-propoxy-1H-1,2,4-triazol-1-yl)carbonyl]amino]sulfonyl]benzoate] | 0.6 | 46.7 | 100 | 1.9 | 9 | 101.2 | 100 | 100 |  |
| COC(=O)c1ccccc1S(=O)(=O)NC(=O)Nc1nc(C)nc(OC)n1 [Metsulfuron-methyl, methyl 2-[[[[(4-methoxy-6-methyl-1,3,5-triazin-2-yl)amino]carbonyl]amino]sulfonyl]benzoate] | 0.0 |  |  |  |  |  |  |  | damage from the treatment (GAT-HRA maize): no significant damage; damage from the treatment (control maize): severely damaged or killed; effect on the ryegrass, on its own [6]: did nothing accept stunt the ryegrass plants slightly |
| COC(=O)c1c(Cl)nn(C)c1S(=O)(=O)NC(=O)Nc1nc(OC)cc(OC)n1 [Halosulfuron-methyl, methyl 3-chloro-5-[[[[(4,6-dimethoxy-2-pyrimidinyl)amino]-carbonyl]amino]sulfonyl]-1-methyl-1H-pyrazole-4-carboxylate] |  |  | 14 |  | 8 |  | 30 | 15 |  |
| COc1cc(OC)nc(NC(=O)NS(=O)(=O)c2ncccc2OCC(F)(F)F)n1 [Trifloxysulfuron Na^+, N-[[(4,6-dimethoxy-2-pyrimidinyl)amino]-carbonyl]-3-(2,2,2-trifluoroethoxy)-2-pyridinesulfonamide] | 0.0 |  | 100 | 1.0 | 29 |  | 100 | 0 |  |
| COC(=O)c1ccc(I)cc1S(=O)(=O)NC(=O)Nc1nc(C)nc(OC)n1 [Iodosulfuron-methyl Na^+, methyl 4-iodo-2-[[[[(4-methoxy-6-methyl-1,3,5-triazin-2-yl)amino]carbonyl]amino]sulfonyl]benzoate] | 24.4 | 52.5 | 100 | 3.5 | 1 | 95.0 | 92 | 5 |  |
| CO/N=C(/C)c1cccc(Oc2nc(OC)cc(OC)n2)c1C(=O)OC [Pyriminobac-methyl] |  |  | 93 | 7.6 | 4 |  | 83 | 20 |  |
| COc1cc(OC)nc(Sc2cccc(Cl)c2C(=O)[O-])n1.[Na+] [Pyrithiobac Na^+, Pyrithiobac] | 0.0 | 48.6 |  | 2.8 |  | 87.9 |  |  |  |
